# From patent publication US11213530B2, “Gallium in the treatment of coronavirus disease” (priority 2020, dated 2022)
# System: SARS-CoV-2 (WIV04)
# Assay type: cell-based
# Conditions: Vero-E6 cells
structure (smiles),measurement,setting,value
Cc1occc(=O)c1[O-].Cc1occc(=O)c1[O-].Cc1occc(=O)c1[O-].[Ga+3] [gallium maltolate],in vitro antiviral activity,"MOI 0.005, 0.1 μM to 100 μM, 24 hours, FIG. 1","pronounced, dose-dependent in vitro antiviral activity"
same,EC50,"MOI 0.005, viral RNA in culture media by qRT-PCR at 24 hours after treatment, read-out: concentration that inhibited viral replication by 50% (EC50)",~14 µM
